pIC50: −log10 of the molar value. Where only a bound is given, the exact number is not on record here.

26 compounds from ChEMBL document CHEMBL5634096, “Design, synthesis and bioevaluation of PI3Kα-selective inhibitors as potential colorectal cancer drugs” (Eur J Med Chem, 2023) can be followed below.

For one test, the system named is HCT-116. In words: Antiproliferative activity against human HCT-116 cells assessed as reduction in cell viability incubated for 24 to 48 hrs by CCK-8 assay. The format is functional, cell-based.
The next test deals with MDA-MB-231. The test can be described thus: Antiproliferative activity against human MDA-MB-231 cells assessed as reduction in cell viability incubated for 24 to 48 hrs by CCK-8 assay. Format: functional, cell-based.
The test system of the next test is MCF7. The test can be described thus: Antiproliferative activity against human MCF7 cells assessed as reduction in cell viability incubated for 24 to 48 hrs by CCK-8 assay. Format: functional, cell-based.
Test [1] addresses Phosphatidylinositol 4,5-bisphosphate 3-kinase catalytic subunit alpha isoform (Homo sapiens, UniProt P42336). In words: Inhibition of PI3Kalpha (unknown origin) by ADP-Glo luminescent kinase assay.
Another test deals with SW-620. The test can be described thus: Antiproliferative activity against human SW-620 cells assessed as reduction in cell viability incubated for 24 to 48 hrs by CCK-8 assay. Format: functional, cell-based.
Test [2] deals with Phosphatidylinositol 4,5-bisphosphate 3-kinase catalytic subunit gamma isoform (Homo sapiens, UniProt P48736). The test can be described thus: Inhibition of PI3Kgamma (unknown origin) by ADP-Glo luminescent kinase assay.
Chain of Phosphatidylinositol 4,5-bisphosphate 3-kinase catalytic subunit gamma isoform (P48736 whole entry, canonical isoform): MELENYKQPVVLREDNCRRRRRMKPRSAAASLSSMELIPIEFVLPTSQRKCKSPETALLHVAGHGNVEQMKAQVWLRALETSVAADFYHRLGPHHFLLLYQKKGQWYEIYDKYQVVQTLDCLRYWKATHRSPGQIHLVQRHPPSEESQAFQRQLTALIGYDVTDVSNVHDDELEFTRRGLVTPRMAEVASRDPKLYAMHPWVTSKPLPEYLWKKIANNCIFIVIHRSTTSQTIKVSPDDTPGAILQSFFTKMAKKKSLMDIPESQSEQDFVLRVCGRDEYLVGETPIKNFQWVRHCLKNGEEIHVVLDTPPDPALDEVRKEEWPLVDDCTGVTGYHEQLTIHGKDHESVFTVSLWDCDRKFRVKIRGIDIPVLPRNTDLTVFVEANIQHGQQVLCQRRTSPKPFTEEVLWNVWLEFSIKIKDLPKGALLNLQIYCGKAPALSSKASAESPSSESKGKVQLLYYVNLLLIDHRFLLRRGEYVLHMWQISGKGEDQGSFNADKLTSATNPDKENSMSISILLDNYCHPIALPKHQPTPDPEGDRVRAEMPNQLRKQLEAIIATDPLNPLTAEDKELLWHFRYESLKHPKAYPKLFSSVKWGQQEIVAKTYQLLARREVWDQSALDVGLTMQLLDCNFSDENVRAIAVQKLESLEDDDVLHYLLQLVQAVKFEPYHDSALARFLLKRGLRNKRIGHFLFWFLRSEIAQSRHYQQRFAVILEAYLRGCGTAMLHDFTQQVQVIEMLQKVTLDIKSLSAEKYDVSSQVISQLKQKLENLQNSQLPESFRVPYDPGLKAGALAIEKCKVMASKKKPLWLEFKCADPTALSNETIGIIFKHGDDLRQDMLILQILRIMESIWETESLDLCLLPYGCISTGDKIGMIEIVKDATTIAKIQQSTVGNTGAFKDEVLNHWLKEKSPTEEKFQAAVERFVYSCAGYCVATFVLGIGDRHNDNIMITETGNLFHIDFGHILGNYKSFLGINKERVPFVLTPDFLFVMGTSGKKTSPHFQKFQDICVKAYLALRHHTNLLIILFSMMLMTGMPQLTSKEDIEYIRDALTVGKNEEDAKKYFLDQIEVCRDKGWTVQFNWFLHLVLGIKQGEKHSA
For test [3], the target named is Phosphatidylinositol 4,5-bisphosphate 3-kinase catalytic subunit beta isoform (Homo sapiens, UniProt P42338). In words: Inhibition of PI3Kbeta (unknown origin) by ADP-Glo luminescent kinase assay.
Chain of Phosphatidylinositol 4,5-bisphosphate 3-kinase catalytic subunit beta isoform (P42338 whole entry, canonical isoform): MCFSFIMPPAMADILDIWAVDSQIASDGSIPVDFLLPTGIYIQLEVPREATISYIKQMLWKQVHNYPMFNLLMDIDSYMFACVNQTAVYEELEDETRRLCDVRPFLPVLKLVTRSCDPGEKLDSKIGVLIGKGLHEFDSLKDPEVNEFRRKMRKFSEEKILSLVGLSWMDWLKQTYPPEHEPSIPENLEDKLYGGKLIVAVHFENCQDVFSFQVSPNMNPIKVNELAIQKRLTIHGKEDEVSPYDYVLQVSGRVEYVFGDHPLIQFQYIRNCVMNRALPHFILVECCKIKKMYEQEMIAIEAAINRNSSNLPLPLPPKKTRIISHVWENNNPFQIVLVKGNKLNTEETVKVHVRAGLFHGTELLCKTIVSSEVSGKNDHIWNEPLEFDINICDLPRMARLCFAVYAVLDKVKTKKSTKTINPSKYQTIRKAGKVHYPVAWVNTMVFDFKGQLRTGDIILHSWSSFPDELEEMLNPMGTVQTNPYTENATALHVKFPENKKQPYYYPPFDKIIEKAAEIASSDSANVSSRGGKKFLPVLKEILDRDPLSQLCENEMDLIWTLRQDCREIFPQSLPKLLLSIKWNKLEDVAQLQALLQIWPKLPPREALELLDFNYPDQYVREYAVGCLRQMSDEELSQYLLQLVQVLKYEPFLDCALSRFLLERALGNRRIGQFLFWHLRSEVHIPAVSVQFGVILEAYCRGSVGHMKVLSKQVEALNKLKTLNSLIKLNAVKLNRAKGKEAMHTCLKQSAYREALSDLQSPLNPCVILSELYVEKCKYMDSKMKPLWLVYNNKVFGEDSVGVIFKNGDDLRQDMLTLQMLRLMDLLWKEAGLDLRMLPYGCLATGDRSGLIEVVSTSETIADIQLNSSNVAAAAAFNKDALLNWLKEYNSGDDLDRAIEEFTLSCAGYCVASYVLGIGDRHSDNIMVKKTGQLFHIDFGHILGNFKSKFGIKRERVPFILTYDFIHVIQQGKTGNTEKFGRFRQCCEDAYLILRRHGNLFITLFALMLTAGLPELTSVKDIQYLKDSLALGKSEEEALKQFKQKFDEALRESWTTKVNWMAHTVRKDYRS
In test [4] the target is T1, Phosphatidylinositol 4,5-bisphosphate 3-kinase catalytic subunit delta isoform (Homo sapiens, UniProt O00329).
T1 sequence (O00329 whole entry): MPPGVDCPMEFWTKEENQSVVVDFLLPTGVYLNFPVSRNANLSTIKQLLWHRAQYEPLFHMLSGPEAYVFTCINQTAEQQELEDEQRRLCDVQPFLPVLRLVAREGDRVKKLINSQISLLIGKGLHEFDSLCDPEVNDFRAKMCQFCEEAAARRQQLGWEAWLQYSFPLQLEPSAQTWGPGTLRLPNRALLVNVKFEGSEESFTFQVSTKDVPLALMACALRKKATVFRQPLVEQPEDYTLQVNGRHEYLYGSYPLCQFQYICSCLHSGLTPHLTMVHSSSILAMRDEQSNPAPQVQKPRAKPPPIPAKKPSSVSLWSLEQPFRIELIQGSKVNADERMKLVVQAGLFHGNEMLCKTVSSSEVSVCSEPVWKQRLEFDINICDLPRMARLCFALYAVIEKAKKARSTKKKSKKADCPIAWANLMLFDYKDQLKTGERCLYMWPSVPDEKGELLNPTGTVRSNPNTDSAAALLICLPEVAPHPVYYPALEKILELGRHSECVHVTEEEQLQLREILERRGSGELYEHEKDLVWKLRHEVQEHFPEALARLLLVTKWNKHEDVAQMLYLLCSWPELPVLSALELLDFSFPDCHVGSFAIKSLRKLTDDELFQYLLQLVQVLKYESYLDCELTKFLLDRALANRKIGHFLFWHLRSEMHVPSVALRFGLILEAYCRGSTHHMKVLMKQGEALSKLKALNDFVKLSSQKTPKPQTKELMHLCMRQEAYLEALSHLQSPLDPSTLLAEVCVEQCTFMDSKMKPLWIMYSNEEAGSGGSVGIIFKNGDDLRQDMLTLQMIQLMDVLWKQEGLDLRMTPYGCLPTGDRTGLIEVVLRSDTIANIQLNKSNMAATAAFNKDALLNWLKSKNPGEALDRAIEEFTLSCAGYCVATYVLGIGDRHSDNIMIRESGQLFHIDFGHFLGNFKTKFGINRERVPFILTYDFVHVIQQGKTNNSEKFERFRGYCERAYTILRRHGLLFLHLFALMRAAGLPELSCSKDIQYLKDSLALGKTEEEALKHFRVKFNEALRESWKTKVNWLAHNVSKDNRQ
In words: Inhibition of PI3Kdelta (unknown origin) by ADP-Glo luminescent kinase assay.

Chain of Phosphatidylinositol 4,5-bisphosphate 3-kinase catalytic subunit alpha isoform (P42336 whole entry, canonical isoform): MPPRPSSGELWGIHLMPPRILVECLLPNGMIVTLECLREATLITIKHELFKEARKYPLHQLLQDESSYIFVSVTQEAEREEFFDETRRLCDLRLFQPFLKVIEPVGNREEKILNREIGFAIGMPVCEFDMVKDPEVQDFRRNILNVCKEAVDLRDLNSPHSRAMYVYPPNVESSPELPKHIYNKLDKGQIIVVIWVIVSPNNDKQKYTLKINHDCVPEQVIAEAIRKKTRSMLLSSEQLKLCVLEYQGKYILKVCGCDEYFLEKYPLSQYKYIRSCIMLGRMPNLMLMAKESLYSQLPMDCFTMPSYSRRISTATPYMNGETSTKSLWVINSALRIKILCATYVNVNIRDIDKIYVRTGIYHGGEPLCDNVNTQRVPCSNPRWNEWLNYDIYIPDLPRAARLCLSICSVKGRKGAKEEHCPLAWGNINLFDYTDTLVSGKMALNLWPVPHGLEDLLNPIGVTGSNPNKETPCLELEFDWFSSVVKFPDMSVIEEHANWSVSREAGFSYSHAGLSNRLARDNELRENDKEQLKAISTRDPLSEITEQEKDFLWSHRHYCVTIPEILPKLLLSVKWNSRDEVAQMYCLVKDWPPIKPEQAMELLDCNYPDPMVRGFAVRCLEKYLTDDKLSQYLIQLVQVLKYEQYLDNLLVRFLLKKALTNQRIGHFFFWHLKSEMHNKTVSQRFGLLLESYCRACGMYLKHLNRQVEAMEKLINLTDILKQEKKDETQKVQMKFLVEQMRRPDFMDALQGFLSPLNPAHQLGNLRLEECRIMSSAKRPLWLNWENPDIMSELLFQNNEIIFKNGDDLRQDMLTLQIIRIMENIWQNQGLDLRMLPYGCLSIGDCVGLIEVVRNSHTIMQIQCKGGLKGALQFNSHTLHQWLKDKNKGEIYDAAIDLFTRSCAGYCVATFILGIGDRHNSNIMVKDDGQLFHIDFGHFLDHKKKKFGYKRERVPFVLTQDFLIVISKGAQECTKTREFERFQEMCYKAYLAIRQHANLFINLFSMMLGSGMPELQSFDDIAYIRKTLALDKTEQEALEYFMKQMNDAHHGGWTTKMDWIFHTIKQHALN

In the case of `NC(=O)[C@H](Cc1ccc(O)cc1)NC(=O)c1cnc2ccc(-c3ccc4oc(N)nc4c3)cn12`, the pIC50 in the test with HCT-116 is less than 4.00; in the test with MDA-MB-231, less than 4.00; with MCF7, 4.83; in test [1], 5.45; with SW-620, 4.54.

As to `CN(C)C1CCN(C(=O)c2cnc3ccc(-c4ccc5oc(N)nc5c4)cn23)CC1`, the pIC50 in the test on HCT-116 is 5.39; with MDA-MB-231, less than 4.00; with MCF7, 5.47; in test [1] it was 7.55; with SW-620, 4.50.

As for `NC(=O)[C@H](NC(=O)c1cnc2ccc(-c3ccc4oc(N)nc4c3)cn12)c1ccccc1`, the pIC50 was 5.14 with HCT-116; less than 4.00 in the test with MDA-MB-231; 4.91 in the test on MCF7; 7.64 in test [1]; 4.30 in the test on SW-620.

As to `Nc1nc2cc(-c3ccc4ncc(N5C[C@@H]6OCCO[C@H]6C5)nc4c3)ccc2o1`, the pIC50 in test [1] was 6.22.

For `Nc1nc2ccc(-c3ccc4ncc(C(=O)N5CCOC(CO)C5)n4c3)cc2o1` (single isomer, unassigned), the pIC50 is 4.84 in the test with HCT-116; 4.76 in the test on MDA-MB-231; 4.72 in the test on MCF7; 7.73 in test [1]; less than 4.00 in the test with SW-620.

On to `Nc1nc2cc(-c3ccc4ncc(C(=O)N5C[C@@H]6OCCO[C@@H]6C5)n4c3)ccc2o1`, for which the pIC50 in the test on HCT-116 is 5.27; in the test with MDA-MB-231, 4.91; in the test on MCF7 it was 5.64; in test [1], 8.14; in the test with SW-620 it was 5.15.

With `NC(=O)[C@@H]1CCCN1C(=O)c1cnc2ccc(-c3ccc4oc(N)nc4c3)cn12`, the pIC50 in the test with HCT-116 is 5.00; in the test on MDA-MB-231, 4.60; in the test with MCF7, 5.66; in test [1] it was 7.74; in the test on SW-620, 4.92.

As to `CCC(NC(=O)c1cnc2ccc(-c3ccc4oc(N)nc4c3)cn12)C(=O)OC` (stereo unspecified), the pIC50 was less than 4.00 in the test on HCT-116; less than 4.00 with MDA-MB-231; less than 4.00 in the test with MCF7; 6.09 in test [1]; less than 4.00 in the test on SW-620.

On to `NC(=O)CNc1ncnc2ccc(-c3ccc4oc(N)nc4c3)cc12`, for which, in test [1], the pIC50 was 7.59.

As to `NC(=O)CNc1cnc2cc(-c3ccc4oc(N)nc4c3)ccc2n1`, the pIC50 in test [1] was 6.32.

Regarding `Nc1nc2cc(-c3ccc4ncc(C(=O)N5C[C@H]6OCCO[C@@H]6C5)n4c3)ccc2o1` (single isomer, unassigned), the pIC50 in the test on HCT-116 is 5.10; in the test with MDA-MB-231, 4.97; in the test with MCF7, 5.23; in test [1], 8.06; in the test with SW-620 it was 4.87.

For `NC(=O)C(NC(=O)c1cnc2ccc(-c3ccc4oc(N)nc4c3)cn12)c1ccccc1` (stereo unspecified), the pIC50 with HCT-116 is 4.47; in the test with MDA-MB-231, less than 4.00; in the test on MCF7, 4.79; in test [1], 7.71; in the test on SW-620, 4.42.

Turning to `COC1CCN(C(=O)c2cnc3ccc(-c4ccc5oc(N)nc5c4)cn23)C1` (stereo unspecified), the pIC50 in test [1] was 5.01.

In test [1], `Nc1nc2cc(-c3ccc4nc(N5C[C@@H]6OCCO[C@@H]6C5)cnc4c3)ccc2o1` gave a pIC50 of 5.78.

The compound `C[C@H](NC(=O)c1cnc2ccc(-c3ccc4oc(N)nc4c3)cn12)C(=O)O` gave a pIC50 in test [1] of less than 5.00.

In test [1], `Nc1nc2cc(-c3ccc4ncc(C(=O)N5CCNCC5)n4c3)ccc2o1` gave a pIC50 of 6.86.

With `C[C@H](Nc1ncnc2ccc(-c3ccc4oc(N)nc4c3)cc12)C(N)=O`, the pIC50 in the test with HCT-116 was less than 4.00; in the test on MDA-MB-231, less than 4.00; in the test with MCF7 it was less than 4.00; in test [1], 7.73; in the test on SW-620, less than 4.00.

For the compound `NC(=O)[C@H](Cc1ccccc1)NC(=O)c1cnc2ccc(-c3ccc4oc(N)nc4c3)cn12`, the pIC50 is 5.11 in the test on HCT-116; 4.74 in the test with MDA-MB-231; 4.73 in the test with MCF7; 7.95 in test [1]; 5.08 in the test on SW-620.

On to `C[C@H](NC(=O)c1cnc2ccc(-c3ccc4oc(N)nc4c3)cn12)C(N)=O`, for which the pIC50 was 5.15 in the test on HCT-116; 6.63 in test [2]; 4.68 with MDA-MB-231; 5.74 in the test on MCF7; 6.09 in test [3]; 6.94 in test [4]. The values for the pIC50 (in test [1]; in the test on SW-620) were 8.34 and 4.95, respectively.

Regarding `NC(=O)CNc1cnc2ccc(-c3ccc4oc(N)nc4c3)cc2n1`, the pIC50 with HCT-116 was 5.34; in the test on MDA-MB-231, 4.99; in the test with MCF7, 5.25; in test [1], 8.42; in the test on SW-620, 4.60.

With `NC(=O)[C@@H](NC(=O)c1cnc2ccc(-c3ccc4oc(N)nc4c3)cn12)c1ccccc1`, the pIC50 with HCT-116 was 5.03; in the test with MDA-MB-231, 4.68; in the test on MCF7, 5.01; in test [1] it was 7.85; in the test with SW-620, 4.77.

For `C[C@@H](NC(=O)c1cnc2ccc(-c3ccc4oc(N)nc4c3)cn12)C(N)=O`, the pIC50 in the test on HCT-116 is less than 4.00; with MDA-MB-231, less than 4.00; in the test with MCF7, 4.44; in test [1] it was less than 5.00; with SW-620, less than 4.00.

Regarding `C[C@H](Nc1cnc2ccc(-c3ccc4oc(N)nc4c3)cc2n1)C(N)=O`, the pIC50 with HCT-116 was 4.59; with MDA-MB-231 it was 4.82; in the test with MCF7, 4.98; in test [1], 6.30; in the test on SW-620 it was 4.22.

Take `CCOC(=O)[C@H](C)NC(=O)c1cnc2ccc(-c3ccc4oc(N)nc4c3)cn12`: the pIC50 with HCT-116 was less than 4.00; in the test on MDA-MB-231, less than 4.00; in the test on MCF7 it was less than 4.00; in test [1], less than 5.00; in the test with SW-620, less than 4.00.

The compound `Nc1nc2cc(-c3ccc4ncc(NCC(=O)NO)nc4c3)ccc2o1` gave a pIC50 in test [1] of 6.97.

`CN(C)C1CCN(C(=O)c2cnc3ccc(-c4ccc5oc(N)nc5c4)cn23)C1` (stereo unspecified): the pIC50 is 5.22 in the test with HCT-116; 4.91 with MDA-MB-231; 4.82 in the test with MCF7; 7.97 in test [1]; 4.96 in the test with SW-620.
